Measurements reported in patent US10407467B2, “Polymyxin derivatives and their use in combination therapy together with different antibiotics” (priority 2013, dated 2019).
Structures can show the parent of a compound that is named as a salt. Where two headings read alike, the source gives them in different places. Numbered stars: 1 amine (or outer) side, 2 acyl side, 3 side chain; on linkers, the order of the positions; unused ones are H or OH. Bridge positions count the residues as written; N and C are the ends. Square brackets hold non-standard residues; d marks the D form. Peptide text beside a SMILES is read from it. * marks the point of attachment. ξ: configuration not given here. X25 = CC(O)[C@@H](C(=O)[*:2])N(CCC1(N)CCCCC1)[*:1]; Acetyl(3-pyridyl) = O=C(Cc1cccnc1)*; Hyp = O=C(O)[C@@H]1C[C@@H](O)CN1; X24 = O=C(CCN1CCS(=O)(=O)CC1)*; Thr(3ξ) = CC(O)[C@H](N)C(=O)O; Chg = N[C@H](C(=O)O)C1CCCCC1; 4Abz = Nc1ccc(C(=O)O)cc1; Dab = NCC[C@H](N)C(=O)O; Bz = O=C(c1ccccc1)*

Columns and labels:
Format in all cases: cell-based
Klebsiella pneumoniae [1] = experiment: MIC, compound in combination with a second agent (broth microdilution); conditions: 1:1 (wt:wt) combination with Rifampicin
Experimental: (§1) To evaluate the potency and spectrum of the compounds both alone and in combination with another agent, susceptibility testing was performed against up to four strains of each of the four Gram negative pathogens, Escherichia coli, Pseudomonas aeruginosa, Klebsiella pneumoniae and Acinetobacter baumannii.
(§2) Ratios of components in a combination, such as 1:1, refers to a weight to weight ratio. The minimum inhibitory concentration (MIC) refers to the total drug concentration (e.g. test compound plus second agent, such as Rifampicin).
(§3) The inoculum was prepared by making a direct suspension of isolated colonies (selected from an 18-24 hour Mueller-Hinton agar plate) adjusted to the 0.5 McFarland standard.
(§4) The assays were performed in duplicate.
(§5) In cases where the duplicate values varied by less than 2-fold, the lower of the two values is reported. If a variation of greater than 2-fold was observed, the assay was considered non-valid. Several of the compounds were subjected to multiple tests, and where this is the case, the MIC reflects the modal value obtained.
(§6) The minimum inhibitory concentration refers to the total drug concentration (e.g. test compound plus Rifampicin). The compounds are used at equal mass within the combination. The weight refers to the mass of compound as used, for example the Example Compounds are used in their TFA or sulphate salt forms.
(§7) MICs refer to the total drug concentration. Thus, where a 1:1 combination is used, this is the amount of the test compound plus the second agent. For comparison, the MIC values for the second agent alone are also given.

Pseudomonas aeruginosa [2] = experiment: as above; conditions: 1:1 (wt:wt) combination with Rifampicin
Experimental: as §1, §2, §3, §4, §5, §6, §7

Klebsiella pneumoniae [3] = experiment: MIC, sole activity (no second agent); conditions: Klebsiella pneumoniae
Experimental: as §1, §3, §4, §5
(§8) MICs were determined as described herein, except that a different supplier of Cation-adjusted MHB was used. […] Values are reported relative to Polymyxin B.

Pseudomonas aeruginosa [4] = experiment: MIC, sole activity (no second agent); conditions: Pseudomonas aeruginosa
Experimental: as §1, §3, §4, §5, §8

Escherichia coli = experiment: MIC, sole activity (no second agent); conditions: Escherichia coli
Experimental: as §1, §3, §4, §5, §8

[5] = MIC is total drug concentration
[6] = MIC = total drug concentration, strain ATCC-BAA-2146
[7] = MIC = total drug concentration, strain CCUG-59348
[8] = MIC = total drug concentration, strain CCUG 59626
[9] = CCUG59348, read-out: MIC K. pneumoniae CCUG 59348
[10] = NCTC13442, read-out: MIC K. pneumoniae NCTC 13442
[11] = NCTC9001, read-out: MIC E. coli NCTC9001
[12] = MIC = total drug concentration, strain NCTC 13438

CC(C)C[C@@H]1NC(=O)[C@@H](Cc2ccccc2)NC(=O)[C@H](CCN)NC(=O)[C@@H](NC(=O)[C@H](CCN)NC(=O)[C@@H](NC(=O)Cc2cccnc2)C(C)O)CCNC(=O)[C@H](C(C)O)NC(=O)[C@H](CCN)NC(=O)[C@H](CCN)NC1=O (some centres unmarked) [Example C5, 3-pyridyl ethanoyl polymyxin B nonapeptide, reference compound] ({Acetyl(3-pyridyl)}-[Thr(3ξ)][Dab][Dab][Dab][dF]L[Dab][Dab][Thr(3ξ)]; lactam 3-C)
MIC K. pneumoniae ATCC-BAA-2146 (Klebsiella pneumoniae [1]; [5]): 1 micrograms/mL
MIC K. pneumoniae CCUG-59348 (Klebsiella pneumoniae [1]; [5]): 4 micrograms/mL
MIC K. pneumoniae NCTC 13438 (Klebsiella pneumoniae [1]; [5]): 2 micrograms/mL
MIC P. aeruginosa CCUG 59626 (Pseudomonas aeruginosa [2]; [5]): 0.25 micrograms/mL

C[C@@H](O)[C@H]1C(=O)N2C(C(=O)O)=C(S[C@@H]3CN[C@H](C(=O)N(C)C)C3)[C@H](C)[C@H]12 [Meropenem, reference compound]
MIC (Klebsiella pneumoniae [3]; ATCCBAA1706, K. pneumoniae ATCC BAA-1706, second agent none, read-out: MIC K. pneumoniae ATCC BAA-1706): 16 µg/mL
MIC (Klebsiella pneumoniae [3]; CCUG59348, K. pneumoniae CCUG 59348, second agent none, read-out: MIC K. pneumoniae CCUG 59348): > 32 µg/mL
MIC (Klebsiella pneumoniae [3]; NCTC13442, K. pneumoniae NCTC 13442, second agent none, read-out: MIC K. pneumoniae NCTC 13442): 16 µg/mL
MIC (Pseudomonas aeruginosa [4]; CCUG59626, P. aeruginosa CCUG 59626, second agent none, read-out: MIC P. aeruginosa CCUG 59626): 16 µg/mL
MIC (Escherichia coli; E. coli NCTC9001, second agent none, read-out: MIC E. coli (NCTC9001)): 0.125 µg/mL

CC(C)C[C@@H]1NC(=O)[C@@H](Cc2ccccc2)NC(=O)[C@H](CCN)NC(=O)[C@@H](NC(=O)[C@H](CCN)NC(=O)[C@@H](NCCC2(N)CCCCC2)C(C)O)CCNC(=O)[C@H](C(C)O)NC(=O)[C@H](CCN)NC(=O)[C@H](CCN)NC1=O (some centres unmarked) [Example 49, N-[2-(1-aminocyclohexyl)ethyl] Polymyxin B nonapeptide] (H-[X25][Dab][Dab][Dab][dF]L[Dab][Dab][Thr(3ξ)]; lactam 3-C)
MIC K. pneumoniae ATCC-BAA-2146 (Klebsiella pneumoniae [1]; [6]): 2 micrograms/mL
MIC K. pneumoniae CCUG-59348 (Klebsiella pneumoniae [1]; [7]): 8 micrograms/mL
MIC P. aeruginosa CCUG 59626 (Pseudomonas aeruginosa [2]; [8]): 0.25 micrograms/mL

CC(C)C[C@@H]1NC(=O)[C@@H](Cc2ccccc2)NC(=O)[C@H](CCN)NC(=O)[C@@H](NC(=O)[C@H](CCN)NC(=O)[C@@H](NC(=O)c2ccccc2)C(C)O)CCNC(=O)[C@H](C(C)O)NC(=O)[C@H](CCN)NC(=O)[C@H](CCN)NC1=O (some centres unmarked) [Example C3, Benzoyl polymyxin B nonapeptide, sulphate salt, reference compound] (Bz-[Thr(3ξ)][Dab][Dab][Dab][dF]L[Dab][Dab][Thr(3ξ)]; lactam 3-C)
MIC K. pneumoniae ATCC-BAA-2146 (Klebsiella pneumoniae [1]; [5]): 2 micrograms/mL
MIC K. pneumoniae CCUG-59348 (Klebsiella pneumoniae [1]; [5]): 8 micrograms/mL
MIC K. pneumoniae NCTC 13438 (Klebsiella pneumoniae [1]; [5]): 2 micrograms/mL
MIC P. aeruginosa CCUG 59626 (Pseudomonas aeruginosa [2]; [5]): 1 micrograms/mL

CN(C)c1cc(NC(=O)CNC(C)(C)C)c(O)c2c1C[C@H]1C[C@H]3[C@H](N(C)C)C(O)=C(C(N)=O)C(=O)[C@@]3(O)C(O)=C1C2=O [Tigecycline, reference compound]
MIC (Klebsiella pneumoniae [3]; [9]): 2 µg/mL
MIC (Klebsiella pneumoniae [3]; [10]): 2 µg/mL
MIC (Pseudomonas aeruginosa [4]; CCUG59626, read-out: MIC P. aeruginosa CCUG 59626): 16 µg/mL
MIC (Escherichia coli; [11]): 0.125 µg/mL

CN[C@H](CC(C)C)C(=O)N[C@H]1C(=O)N[C@@H](CC(N)=O)C(=O)N[C@H]2C(=O)N[C@H]3C(=O)N[C@H](C(=O)N[C@H](C(=O)O)c4cc(O)cc(O)c4-c4cc3ccc4O)[C@H](O)c3ccc(c(Cl)c3)Oc3cc2cc(c3O[C@@H]2O[C@H](CO)[C@@H](O)[C@H](O)[C@H]2O[C@H]2C[C@](C)(N)[C@H](O)[C@H](C)O2)Oc2ccc(cc2Cl)[C@H]1O [Vancomycin, reference compound]
MIC (Klebsiella pneumoniae [3]; [9]): > 32 µg/mL
MIC (Klebsiella pneumoniae [3]; CCUG59626, read-out: MIC K. pneumoniae CCUG 59626): > 32 µg/mL
MIC (Klebsiella pneumoniae [3]; [10]): > 32 µg/mL
MIC (Escherichia coli; [11]): > 32 µg/mL

CC(=O)O[C@H]1C[C@@]2(C)[C@@H](C[C@@H](O)[C@H]3[C@@]4(C)CC[C@@H](O)[C@@H](C)[C@@H]4CC[C@@]32C)/C1=C(\CCC=C(C)C)C(=O)O [Fusidic acid, reference compound]
MIC (Klebsiella pneumoniae [3]; Table 7I, K. pneumoniae ATCC4352, second agent none, read-out: MIC K. pneumoniae (ATCC4352)): 16 µg/mL
MIC (Escherichia coli; Table 7I, E. coli ATCC25922, second agent none, read-out: MIC E. coli (ATCC25922)): > 32 µg/mL

Cc1onc(-c2ccccc2)c1C(=O)N[C@@H]1C(=O)N2[C@@H]1SC(C)(C)[C@@H]2C(=O)O [Oxacillin, reference compound]
MIC (Klebsiella pneumoniae [3]; Table 7G, K. pneumoniae ATCC4352, second agent none, read-out: MIC K. pneumoniae (ATCC4352)): 16 µg/mL
MIC (Escherichia coli; Table 7G, E. coli ATCC25922, second agent none, read-out: MIC E. coli (ATCC25922)): > 32 µg/mL

CC(C)C[C@@H]1NC(=O)[C@@H](Cc2ccccc2)NC(=O)[C@H](CCN)NC(=O)[C@@H](NC(=O)[C@H](CCN)NC(=O)[C@@H](NC(=O)c2ccc(N)cc2)C(C)O)CCNC(=O)[C@H](C(C)O)NC(=O)[C@H](CCN)NC(=O)[C@H](CCN)NC1=O (some centres unmarked) [Example 5, 4-Aminobenzoyl polymyxin B nonapeptide] (H-[4Abz][Thr(3ξ)][Dab][Dab][Dab][dF]L[Dab][Dab][Thr(3ξ)]; lactam 4-C)
MIC K. pneumoniae ATCC-BAA-2146 (Klebsiella pneumoniae [1]; [6]): 1 micrograms/mL
MIC K. pneumoniae CCUG-59348 (Klebsiella pneumoniae [1]; [7]): 2 micrograms/mL
MIC K. pneumoniae NCTC 13438 (Klebsiella pneumoniae [1]; [12]): 1 micrograms/mL
MIC K. pneumoniae ATCC-BAA-2146 (Klebsiella pneumoniae [1]; [5]): 1 micrograms/mL
MIC K. pneumoniae CCUG-59348 (Klebsiella pneumoniae [1]; [5]): 2 micrograms/mL
MIC K. pneumoniae NCTC 13438 (Klebsiella pneumoniae [1]; [5]): 1 micrograms/mL
MIC P. aeruginosa CCUG 59626 (Pseudomonas aeruginosa [2]; [8]): 0.25 micrograms/mL
MIC P. aeruginosa CCUG 59626 (Pseudomonas aeruginosa [2]; [5]): 0.25 micrograms/mL

CC(C)C[C@@H]1NC(=O)[C@@H](Cc2ccccc2)NC(=O)[C@H](CCN)NC(=O)[C@@H](NC(=O)[C@H](CCN)NC(=O)[C@@H](NC(=O)[C@@H](N)C2CCCCC2)C(C)O)CCNC(=O)[C@H](C(C)O)NC(=O)[C@H](CCN)NC(=O)[C@H](CCN)NC1=O (stereo partly drawn) [Example 40, 2-(S)-(2-amino-2-cyclohexyl)ethanoyl polymyxin B nonapeptide, trifluoroacetate salt] (H-[Chg][Thr(3ξ)][Dab][Dab][Dab][dF]L[Dab][Dab][Thr(3ξ)]; lactam 4-C)
MIC K. pneumoniae ATCC-BAA-2146 (Klebsiella pneumoniae [1]; [6]): 2 micrograms/mL
MIC K. pneumoniae CCUG-59348 (Klebsiella pneumoniae [1]; [7]): 8 micrograms/mL
MIC P. aeruginosa CCUG 59626 (Pseudomonas aeruginosa [2]; [8]): 0.5 micrograms/mL

CC(C)C[C@@H]1NC(=O)[C@@H](Cc2ccccc2)NC(=O)[C@H](CCN)NC(=O)[C@@H](NC(=O)[C@H](CCN)NC(=O)[C@@H](NC(=O)[C@@H]2C[C@@H](O)CN2)C(C)O)CCNC(=O)[C@H](C(C)O)NC(=O)[C@H](CCN)NC(=O)[C@H](CCN)NC1=O (stereo partly drawn) [Example 35, (2S,4R)-4-Hydroxy-2-pyrrolidine carbonyl polymyxin B nonapeptide, trifluoroacetate salt] (H-[Hyp][Thr(3ξ)][Dab][Dab][Dab][dF]L[Dab][Dab][Thr(3ξ)]; lactam 4-C)
MIC K. pneumoniae ATCC-BAA-2146 (Klebsiella pneumoniae [1]; [6]): 4 micrograms/mL
MIC K. pneumoniae CCUG-59348 (Klebsiella pneumoniae [1]; [7]): 16 micrograms/mL
MIC K. pneumoniae NCTC 13438 (Klebsiella pneumoniae [1]; [12]): 4 micrograms/mL
MIC P. aeruginosa CCUG 59626 (Pseudomonas aeruginosa [2]; [8]): 0.5 micrograms/mL

CC(C)C[C@@H]1NC(=O)[C@@H](Cc2ccccc2)NC(=O)[C@H](CCN)NC(=O)[C@@H](NC(=O)[C@H](CCN)NC(=O)[C@@H](NC(=O)CCN2CCS(=O)(=O)CC2)C(C)O)CCNC(=O)[C@H](C(C)O)NC(=O)[C@H](CCN)NC(=O)[C@H](CCN)NC1=O (some centres unmarked) [Example 12, 3-(1,1-dioxo-thiomorpholine-4-yl)propanoyl Polymyxin B nonapeptide] (X24-[Thr(3ξ)][Dab][Dab][Dab][dF]L[Dab][Dab][Thr(3ξ)]; lactam 3-C)
MIC K. pneumoniae ATCC-BAA-2146 (Klebsiella pneumoniae [1]; [6]): 4 micrograms/mL
MIC K. pneumoniae CCUG-59348 (Klebsiella pneumoniae [1]; [7]): 16 micrograms/mL
MIC K. pneumoniae NCTC 13438 (Klebsiella pneumoniae [1]; [12]): 4 micrograms/mL
MIC P. aeruginosa CCUG 59626 (Pseudomonas aeruginosa [2]; [8]): 0.5 micrograms/mL
